Experimental data: the NIST ThermoML archive (doi:10.1016/j.fluid.2013.05.022)
± gives the expanded uncertainty stated by the source.

How the values were obtained:
[1] = 298.15 K; 85.9 kPa; Liquid; Vibrating tube method
[2] = refractive index (Na D-line) (dimensionless); conditions: 298.15 K; 859 kPa; Liquid; Standard Abbe refractometry

Structure (SMILES): CN(C)C=O [dimethylformamide]
- mass density [1]: 944.53 ± 1 kg/m3
- refractive index [2]: 1.4281 ± 0.0004
